Common to all, as to assay: NCI tumour cell line growth inhibition, 48 h
The test system of assay [1] is HOP-18.
For assay [2], the system named is XF498.
In assay [3] the test system is LXFL 529.
The test system of assay [4] is SNB-78.
The test system of assay [5] is DMS-114.
For assay [6], the system named is DMS-273.
Assay [7] deals with M19-MEL.
The subject of assay [8] is DLD-1.
For assay [9], the system named is RXF 631.

Where “and” joins values, the source holds several entries; their conditions need not be identical. Identical values can stand only once.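 Values below derive from 48-hour exposures of cells grown in 96-well plates, with endpoints linearly interpolated between the two concentrations bracketing the appropriate inhibition level. The concentration for 50% growth inhibition is given as GI50.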 Calls of active or inactive are those of the source. No stated cut-off is given here; in the data, active = GI50 up to about 1.1 µM and inactive = higher.

Experimental findings from ChEMBL document CHEMBL1201862, “PubChem BioAssay data set” (2004) are described below.

With `S=c1sc2c(Cl)ncnc2n1-c1ccccc1`, the GI50 in [1] was 19 µM (inactive); in assay [2], 15.2 µM (inactive); in assay [3], 12.4 µM (inactive); in assay [4], 10.5 µM (inactive); in [5] it was 13.6 µM (inactive); in assay [6] it was 1.51 µM (inactive). Further, the GI50 in assay [7] is 3.8 µM (inactive); in assay [8], 11.5 µM (inactive).

Turning to `NC(=O)/C(=N\NC(=O)C[n+]1ccccc1)C1NC(=O)NC1=O` (stereo unspecified), the GI50 in assay [1], in assay [2], in [9], in assay [3], in assay [4] and in assay [5] was > 100 µM (inactive) throughout. The GI50 in assay [6], in assay [7] and in assay [8] was > 100 µM (inactive) in each case.

Regarding `CCCCN(CC)CC(C(C)=O)c1c(O)c2ccccc2oc1=O` (stereo unspecified), the GI50 in assay [1], in assay [2], in assay [3], in assay [4], in assay [5] and in assay [6] was > 100 µM (inactive) each time. Moreover, the GI50 in [7] and in assay [8] was > 100 µM (inactive) each time.

As for `CNC(=O)CN(CC(N)=O)C(=O)NC`, the GI50 in assay [2], in assay [9], in assay [3], in [4], in [6] and in [7] was > 100 µM (inactive) in each case. Besides, the GI50 in [8] was > 100 µM (inactive).

With `O=C(CCc1n[nH]c(=S)o1)Nc1cc(Cl)c(Cl)cc1Cl`, the GI50 in assay [1] was 58.7 µM (inactive); in assay [9] it was 44.6 µM (inactive); in [3], 44.8 µM (inactive); in [4], > 100 µM (inactive); in assay [5], 41.3 µM (inactive); in assay [6], 24.3 µM (inactive). For the same molecule, the GI50 in assay [7] was > 100 µM (inactive); in [8], 29 µM (inactive).

`O=c1[nH]cnc2c1nnn2C1C=C(CO)C(O)C1O` (stereo unspecified): the GI50 in [1] was > 100 µM (inactive); in assay [2], > 100 µM (inactive); in assay [3] it was > 100 µM (inactive); in [4] it was > 100 µM (inactive); in assay [5], 59.2 µM (inactive); in [6] it was 23.5 µM (inactive). Also, the GI50 in assay [7] and in assay [8] was > 100 µM (inactive) throughout.

On to `COc1cc(/C=C2\NC(=S)C3Cc4c(OC)c(C)c(OC)c(OC)c4C2N3C)c(OC)c(C)c1OC` (stereo unspecified), for which the GI50 in assay [1] was 27.8 µM (inactive); in [3] it was 28.8 µM (inactive); in assay [5] it was 27.5 µM (inactive); in assay [6] it was 46.9 µM (inactive); in assay [7], 45.6 µM (inactive); in [8], 51.1 µM (inactive).

As for `Cc1ccc(S(=O)(=O)n2c(-c3ccccc3)c(-c3ccccc3)c3ccccc32)cc1`, the GI50 in [1] is > 100 µM (inactive); in assay [2], > 100 µM (inactive); in [3] it was > 100 µM (inactive); in [5], 20.5 µM (inactive); in assay [6] it was > 100 µM (inactive); in assay [7], > 100 µM (inactive). Besides, in assay [8], the GI50 is > 100 µM (inactive).

In the case of `Cc1ccc(NCC(=O)N2CC(=O)Nc3ccccc32)c(C)c1`, the GI50 in assay [1], in assay [2], in assay [3], in assay [4], in assay [6] and in assay [7] was > 100 µM (inactive) each time. The GI50 in assay [8] was > 100 µM (inactive).

Take `CCOC(=O)C(C(=O)c1ccccc1-c1ccccc1C(=O)O)=P(c1ccccc1)(c1ccccc1)c1ccccc1`: the GI50 in assay [2] was 23.3 µM (inactive); in assay [9] it was 37.8 µM (inactive); in assay [3] it was 24.9 µM (inactive); in [5], 20.1 µM (inactive); in assay [6] it was 31.8 µM (inactive); in [7] it was 27.8 µM (inactive).

For the molecule `CCN(CC)CC(C)(C)C(=O)/C=C/c1cccc(/C=C/C(=O)C(C)(C)CN(CC)CC)c1`, the GI50 in assay [1] is 1.51 µM (inactive); in [2], 0.409 µM (active); in assay [9], 1.09 µM (active); in [3], 0.331 µM (active); in assay [4], 2.21 µM (inactive); in assay [5] it was 0.307 µM (active). Further, the GI50 is 0.476 µM (active) in [6], 0.959 µM (active) in assay [7] and 0.237 µM (active) in assay [8].

For the molecule `Cc1ccccc1/N=N/c1c(-c2ccccc2)nn(C(=O)CC(=O)Nc2cccc(Cl)c2)c1-c1ccccc1`, the GI50 in assay [1] was 25.7 µM (inactive); in assay [2] it was 28.2 µM (inactive); in [3] it was 21.6 µM (inactive); in [4], 23.5 µM (inactive); in [5], 14.9 µM (inactive); in assay [6] it was 20 µM (inactive). Moreover, the GI50 in [7] is > 10 µM (inactive); in assay [8], 20.4 µM (inactive).

Regarding `Cc1cc2c(c(C#N)c1C)NC(=O)CCC2=O`, the GI50 in assay [2], in assay [9], in assay [3], in assay [4], in [5] and in [6] was > 100 µM (inactive) each time. The GI50 in assay [7] and in assay [8] was > 100 µM (inactive) each time.

`COc1ccc(-c2cc(-c3ccco3)c(C#N)c(=O)n2C2OC(OC(=O)c3ccccc3)C(OC(=O)c3ccccc3)C2OC(=O)c2ccccc2)cc1` (stereo unspecified): the GI50 in assay [1] is > 100 µM (inactive); in assay [9], > 100 µM (inactive); in [3], > 100 µM (inactive); in assay [4], > 100 µM (inactive); in assay [5], > 100 µM (inactive); in [6], 63.4 µM (inactive). Moreover, the GI50 in [7] and in [8] was > 100 µM (inactive) throughout.

Take `C=CC1(C(=O)O)CCC(C(C)(C)C)CC1` (stereo unspecified): the GI50 in assay [1], in [2], in assay [9], in assay [3], in assay [4] and in assay [5] was > 100 µM (inactive) throughout. Besides, the GI50 in assay [6], in assay [7] and in [8] was > 100 µM (inactive) in each case.

`COc1cc2c(cc1OC)[C@H]1C(COC(=O)c3ccccc3)CS/C(=N/c3ccccc3)N1CC2` (stereo partly specified): the GI50 was > 100 µM (inactive) in assay [1]; > 100 µM (inactive) in assay [2]; 24.4 µM (inactive) in assay [3]; 27 µM (inactive) in assay [4]; 17.1 µM (inactive) in [5]; 74 µM (inactive) in assay [6]. The GI50 in assay [7] and in assay [8] was > 100 µM (inactive) in each case.

On to `O=C(COc1ccccc1Cl)N1N=C(c2ccc(Cl)cc2)CC1(O)c1ccccc1` (stereo unspecified), for which the GI50 in assay [2], in assay [9], in [3], in assay [4], in assay [6] and in [7] was > 100 µM (inactive) each time. Moreover, the GI50 in assay [8] was > 100 µM (inactive).

As to `C[C@@H]1C[C@@H]2C(=O)N(c3ccccc3)C(=O)[C@@H]2c2[nH]c3ccc(Br)cc3c21`, the GI50 in [1] is 24.1 µM (inactive); in [2], 26.1 µM (inactive); in [9], 28.8 µM (inactive); in assay [3], 37.6 µM (inactive); in [4], 25.1 µM (inactive); in assay [5], 53 µM (inactive). Moreover, the GI50 is > 100 µM (inactive) in assay [6], 70.8 µM (inactive) in [7] and 44.2 µM (inactive) in assay [8].

As to `COc1ccccc1/C=N/C12CC3CC(CC(C3)C1)C2`, the GI50 in [5] is > 10 µM (inactive); in assay [6], > 100 µM (inactive); in assay [7], > 100 µM (inactive).

In the case of `N#CC(c1ccccc1)c1nc2ccc(N)cc2[n+]([O-])c1C(C#N)c1ccccc1` (stereo unspecified), the GI50 was > 100 µM (inactive) in assay [1]; 48.5 µM (inactive) in [2]; 86.9 µM (inactive) in assay [9]; 51.1 µM (inactive) in assay [3]; > 100 µM (inactive) in [4]; 45.9 µM (inactive) in assay [6]. The values for the GI50 in assay [7] and in [8] were 55.1 µM (inactive) and 43.6 µM (inactive), respectively.

For the molecule `C1=Cc2nc1c(-c1ccncc1)c1ccc([n-]1)c(-c1ccncc1)c1nc(c(-c3ccncc3)c3ccc([n-]3)c2-c2ccncc2)C=C1.[Zn+2]`, the GI50 in assay [2], in [9], in [3], in assay [4], in assay [5] and in assay [7] was > 100 µM (inactive) each time. In addition, the GI50 in [8] is > 100 µM (inactive).

With `C[C@@H]1CC[C@@]2(C)OC(c3ccccc3)[C@H](CO)N2C1=O` (stereo partly specified), the GI50 in assay [1], in assay [2], in [4], in assay [5], in assay [6] and in [7] was > 100 µM (inactive) each time. Further, the GI50 in assay [8] is > 100 µM (inactive).

`O=c1ncccn1[C@@H]1O[C@H](CO)[C@@H](O)[C@@H]1F`: the GI50 is > 100 µM (inactive) in assay [1]; > 100 µM (inactive) in assay [2]; > 51.6 µM (inactive) in [9]; > 100 µM (inactive) in assay [3]; > 100 µM (inactive) in [4]; > 100 µM (inactive) and > 58.7 µM (inactive) in assay [5]. In addition, the GI50 in assay [6] and in assay [7] was > 100 µM (inactive) in each case.

For the molecule `O=C(O)CCCc1ccc(N(CCCl)CCCl)cc1` [CHLORAMBUCIL], the GI50 in assay [1] is > 81.1 µM (inactive); in assay [2], 55.1 µM (inactive); in assay [9], 86.9 µM (inactive); in [3], 95.5 µM (inactive); in [5], 45.1 µM (inactive); in assay [6] it was 23.7 µM (inactive). For the same molecule, the values for the GI50 in assay [7] and in assay [8] were 87.7 µM (inactive) and 104 µM (inactive), respectively.
